Laboratory results reported in patent publication US20210205225A1, “BIOAVAILABLE ORAL DOSAGE FORMS” (PTC Therapeutics, Inc., priority 2018, published 2021).
≈ marks a conversion by molar mass, not a printed value.

Tests used:
[1] = Clinical BA/BE and food effect study, safety; format: in vivo, human
Method: (§1) Compound 1 was administered as a single-dose in Lipid Formulation capsules or as PVP SDI Formulation tablets. The primary objective of the study was to determine the comparative single-dose PK and safety profiles of Compound 1 administered in the 2 formulations. The study was also aimed to study of the food effect on the PK and safety profiles for the PVP SDI Formulation tablet.
(§2) Subjects in the study were enrolled in 3 stages. In Stage 1, 24 subjects were randomly accrued into 3 cohorts of 8 subjects receiving Compound 1 in both the Lipid Formulation capsule and the PVP SDI Formulation tablet at dose levels of 0.5 mg/kg, 1 mg/kg, and 2 mg/kg. In Stage 2, 24 subjects were accrued in 3 cohorts of 8 subjects with each cohort receiving a sequentially higher doses of Compound 1 in the PVP SDI Formulation tablet at dose levels of 400, 800, and 1600 mg. An additional 12 subjects (6 males and 6 females) were enrolled in Stage 3 to evaluate the effect of food on the PK of Compound 1 when administered at 400 mg and 1000 mg in the PVP SDI Formulation tablet.
(§3) During the study, data regarding adverse events, vital signs, blood counts, coagulation assessments, blood chemistry determinations, urinalyses, and ECGs were collected at baseline and repeatedly over 72 hours after administration of the study medication, and again at a follow-up visit 7 days after the last study treatment. Blood samples for assessment of plasma Compound 1 concentrations were collected at multiple timepoints. Compound 1 concentrations were analyzed using LC-MS/MS, validated for human plasma.

[2] = Phase 1 single-dose lipid capsule PK and food effect study; format: in vivo, human
Text: (§4) Compound 1 has been evaluated in a Phase 1, randomized, placebo-controlled, escalating, single-dose, safety, tolerability, PK, and food effect study in healthy adult volunteers. Compound 1 was provided in lipid-filled gelatin capsules. The primary objective of the study was to determine a dose range for Compound 1 that safely achieved pharmacologically active target plasma concentrations (as determined from xenograft studies) and that was appropriate for use in a subsequent multiple-dose study.
(§5) Subjects in the study were enrolled in 2 stages. In Stage 1, 40 subjects were accrued in 5 cohorts of 8 subjects with each cohort receiving a sequentially higher single dose of Compound 1 at dose levels of 0.03, 0.1, 0.3, 1, and 3 mg/kg. Within a cohort, 6 subjects (3 males and 3 females) received Compound 1 and 2 subjects (1 male and 1 female) received placebo. An additional 12 subjects (6 males and 6 females) were enrolled in Stage 2 to evaluate the effect of food on the PK of Compound 1.
as §3, with “During both Stages 1 and 2 of” for “During”, “In both Stages 1 and 2, blood” for “Blood”, “plasma. Blood for measurement of plasma DHODH levels are collected at multiple time points. Plasma DHODH concentrations are analyzed using a clinically validated ELISA (R&D Systems). Similarly, blood for measurement of plasma VEGF-A levels was collected at multiple time points. Plasma VEGF-A concentrations were analyzed using a clinically validated ELISA (R&D Systems).” for “plasma.”

[3] = Clinical BA/BE and food effect study, PVP SDI Formulation tablets vs Lipid Formulation capsules, PK; format: in vivo, human
Method: The PVP SDI Formulation tablets prepared in Example 13 were compared to the Lipid Formulation capsules prepared in Example 7 in a clinical BA/BE (bioequivalence/bioavailability) study that evaluated the effect of food on the bioavailability of the PVP SDI Formulation tablets.
as §1, §2, §3

[4] = Phase 1 single-dose lipid capsule study, safety and tolerability; format: in vivo, human
Text: as §4, §5
as §3, with “During both Stages 1 and 2 of” for “During”, “In both Stages 1 and 2, blood” for “Blood”, “plasma. Blood for measurement of plasma DHODH levels are collected at multiple time points. Plasma DHODH concentrations are analyzed using a clinically validated ELISA (R&D Systems). Similarly, blood for measurement of plasma VEGF-A levels was collected at multiple time points. Plasma VEGF-A concentrations were analyzed using a clinically validated ELISA (R&D Systems).” for “plasma.”

[5] = Solubility of the SDI and a surfactant (5% w/w) in aqueous solution, saturated, RT; format: physicochemical
Method: Aqueous suspensions (5% w/w) of the crystalline Compound 1b and the amorphous SDI were prepared in saturated solutions with surfactants selected from SDS, Poloxamer 188, Poloxamer 407, Gelucire 44/14 and Gelucire 50/13.
The solution was not sufficiently translucent to determine when sufficient material was added to provide the saturated solution. As a result, the solution was allowed to stand so that the excess Gelucire settled, and the supernatant was recovered and used for the solubility study. The exact concentration of Gelucire 50/13 in the solution was unknown.

[6] = solid formulation, higher doses
[7] = saturated in 5% w/w Gelucire 44/14 aqueous solution, 0 hrs
[8] = saturated in 5% w/w Gelucire 44/14 aqueous solution, 24 hrs
[9] = saturated in 5% w/w Poloxamer 188 aqueous solution, 0 hrs
[10] = saturated in 5% w/w SDS aqueous solution, 0 hrs
[11] = saturated in 5% w/w SDS aqueous solution, 24 hrs
[12] = saturated in Gelucire 50/13 supernatant solution, 0 hrs
[13] = saturated in Gelucire 50/13 supernatant solution, 24 hrs

COc1ccc([C@H]2c3[nH]c4ccc(Cl)cc4c3CCN2C(=O)Oc2ccc(Cl)cc2)cc1 [Compound 1, 4-chlorophenyl (S)-6-chloro-1-(4-methoxyphenyl)-1,3,4,9-tetrahydro-2H-pyrido[3,4-b]indole-2-carboxylate]
laboratory abnormality in 1 subject ([1]; Stage 1, 2 mg/kg in the Lipid Capsule Formulation, considered unlikely to be drug related): Grade 3 elevation of serum creatine kinase | physical examinations, vital sign measurements, ECGs ([1]; all 3 stages): no safety concerns | deaths or serious adverse events ([1]; human, in vivo): No deaths or serious adverse events | tolerability ([1]; single dose, lipid capsules or PVP SDI tablets): generally well tolerated | increases in mean Cmax values with dose ([2]; Stage 1, 0.03-3 mg/kg): generally dose proportional | increase of mean Cmax by high-fat, high-calorie meal ([2]; Stage 2, 1 mg/kg): about 40% | Tmax ([2]; both sexes, human, plasma, oral, lipid capsules, single dose): 3 to 6 h | half-life ([2]; both sexes, human, plasma, oral, lipid capsules, single dose, read-out: terminal half-life (t1/2β)): 28 to 56 h | low concentrations still evident in plasma ([2]; lipid capsules, 3.0-mg/kg dose): ≥ 168 h | persistence of concentrations in plasma ([2]; lipid capsules, doses 0.30 mg/kg): ≥ 72 h | mean Cmax after a high-fat, high-calorie meal ([2]; lipid capsules, fed vs fasted): increased | lag time to appearance in plasma ([2]; lipid-filled gelatin capsules, single dose): about 30 minutes | mean Cmax after a high-fat, high-calorie meal ([3]; PVP SDI Formulation tablet, fed vs fasted): increased | increase of mean Cmax and AUC by high-fat, high-calorie meal ([3]; Stage 3, 400 mg or 1000 mg, PVP SDI Formulation tablet): about 100% | half-life ([3]; human, plasma, oral, PVP SDI Formulation tablet, Stage 2): 38 to 65 h | Tmax ([3]; human, plasma, oral, single dose): 3 to 7 h | concentrations still evident in plasma [3, 6]: ≥ 168 h | lag time to appearance in plasma [3, 6]: about 30 minutes | persistence of concentrations in plasma [3, 6]: ≥ 72 h | treatment-emergent adverse event: nausea, subjects receiving Compound 1 ([4]; Stage 1): 4 subjects | treatment-emergent adverse event: headache ([4]; Stage 1, 40 subjects dosed): 9 episodes in 8 subjects | adverse event: back pain ([4]; Stage 2): 2 episodes in 2 subjects | adverse event: headaches ([4]; Stage 2): 3 episodes in 3 subjects | severity of adverse events ([4]; all except 1 case of Grade 2 diarrhea at 1 mg/kg fasted, Stage 2): Grade 1 | hematology, coagulation, chemistry parameters ([4]; both stages): No clinically significant changes | physical examinations, vital sign measurements, ECGs ([4]; both stages): no safety concerns | deaths or serious adverse events ([4]; in vivo): No deaths or serious adverse events | tolerability ([4]; single dose, lipid capsules): generally well tolerated

COc1ccc([C@H]2c3[nH]c4ccc(Cl)cc4c3CCN2C(=O)Oc2ccc(Cl)cc2)cc1 [Compound 1b]
Solubility [5, 7]: 14.7 µg/mL (≈ 31.5 µM) | Solubility [5, 8]: 23.6 µg/mL (≈ 50.5 µM) | Solubility [5, 9]: 0.2 µg/mL (≈ 0.428 µM) | Solubility [5, 10]: 2.4 µg/mL (≈ 5.14 µM) | Solubility [5, 11]: 6.2 µg/mL (≈ 13.3 µM) | Solubility [5, 12]: 7.8 µg/mL (≈ 16.7 µM) | Solubility [5, 13]: 23.0 µg/mL (≈ 49.2 µM)

COc1ccc([C@H]2c3[nH]c4ccc(Cl)cc4c3CCN2C(=O)Oc2ccc(Cl)cc2)cc1 [Sample 2]
solubility at 24 h ([5]; 5% w/w Poloxamer 188 aqueous solution, aqueous with cosolvent or surfactant or cyclodextrin, thermodynamic from solid, saturated in 5% w/w Poloxamer 188 aqueous solution, 24 hrs): 4.3 µg/mL (≈ 9.2 µM) | Solubility [5, 7]: 142.5 µg/mL (≈ 305 µM) | Solubility [5, 8]: 58.4 µg/mL (≈ 125 µM) | Solubility [5, 9]: 0.7 µg/mL (≈ 1.5 µM) | Solubility [5, 10]: 224.7 µg/mL (≈ 481 µM) | Solubility [5, 11]: 32.4 µg/mL (≈ 69.3 µM) | Solubility [5, 12]: 677.4 µg/mL (≈ 1450 µM) | Solubility [5, 13]: 371.5 µg/mL (≈ 795 µM)
